Assay [1] addresses T1, Soluble epoxide hydrolases (human recombinant) (Homo sapiens, UniProt P34913).
T1 construct: purchased Cayman (Ann Arbor, MI, USA) 10011669
T1 sequence (P34913 1-555): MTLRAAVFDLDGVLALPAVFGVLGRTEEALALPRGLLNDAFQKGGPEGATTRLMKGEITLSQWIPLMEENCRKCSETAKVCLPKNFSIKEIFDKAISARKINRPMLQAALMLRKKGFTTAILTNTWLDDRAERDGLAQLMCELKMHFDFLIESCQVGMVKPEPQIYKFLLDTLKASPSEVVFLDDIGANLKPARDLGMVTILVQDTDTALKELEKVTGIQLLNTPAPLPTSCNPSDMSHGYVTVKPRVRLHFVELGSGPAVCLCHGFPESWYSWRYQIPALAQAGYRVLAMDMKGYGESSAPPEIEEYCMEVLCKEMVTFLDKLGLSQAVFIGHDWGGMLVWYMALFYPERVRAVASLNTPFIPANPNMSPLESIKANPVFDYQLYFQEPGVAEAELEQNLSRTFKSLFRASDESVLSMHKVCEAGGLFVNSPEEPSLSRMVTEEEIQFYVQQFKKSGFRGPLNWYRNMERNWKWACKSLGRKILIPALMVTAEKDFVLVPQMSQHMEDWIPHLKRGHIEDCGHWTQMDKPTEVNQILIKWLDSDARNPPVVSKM
The assay is described as follows: biochemical. As to conditions: triplicate; for inhibition at 100 µM: PHOME substrate, read-out: Inhibitory Rate at 100 μM (%) sEH; for IC50: PHOME hydrolysis, pH 7.0, 37 °C, read-out: sEH IC50. The procedure:
To evaluate the binding mode between sEH and the inhibitors, a kinetic study was performed using various inhibitors and substrate concentrations.
NMR spectra was obtained on Bruker Advance 600 and 300 MHz (Bruker; Rheinstetten, Germany) spectrometer. Column chromatography was performed using silica gel (Kieselgel 60; 70–230; and 230–400 mesh; Merck; Darmstadt, Germany) and YMC RP-18 resins. Thin layer chromatography (TLC) was performed using pre-coated silica-gel 60 F254 and RP-18 F254S plates (both 0.25 mm; Merck; Darmstadt, Germany). Spots were visualized by spraying with 10% aqueous H2SO4 solution followed by heating. Methanol; acetonitrile (Sigma-Aldrich; St. Louis, MO, USA) and trifluoroacetic acid (Alfa Aesar; Ward Hill, MA, USA) used in this study were of HPLC grade and the distilled water was prepared by the ultra-pure water manufacturing device (Optimos; Sinhan Science Tech, Daejeon, Korea). […] The quantitative analysis for three selaginellins was carried out on Optimapak C18 (250 mm × 4.6 mm I.D.; 5 μm) column.

The test system of assay [2] is tyrosinase. The assay is described as follows: Tyrosinase inhibition. Type of assay: biochemical. The note with it: triplicate.
For assay [3], the target named is T2, sEH (Homo sapiens, UniProt P34913).
T2 construct: purchased Cayman (Ann Arbor, MI, USA) 10011669
T2 sequence (P34913 1-555): T1 sequence (P34913 1-555)
The assay is described as follows: sEH kinetic analysis (Lineweaver-Burk, secondary plot). Type of assay: biochemical. As to conditions: for sEH inhibition type: Lineweaver-Burk plots; for Ki: secondary re-plot of slope vs [I], Equation (3). The procedure: To evaluate the inhibitory activity of compounds 1–3 on sEH, their hydrolysis effects on the formation of 6-methoxy-2-naphthaldehyde from (3-phenyl-oxiranyl)-acetic acid cyano-(6-methoxy-naphthalen-2-yl)-methyl ester (PHOME) were evaluated by fluorometric determination using an excitation wavelength of 330 nm and emission wavelength of 465 nm. […]. To evaluate the binding mode between sEH and the inhibitors, a kinetic study was performed using various inhibitors and substrate concentrations.
Secondary plots can be constructed from (3) Slope=km/Vmax+Km[I]/VmaxKi

The term IC50 denotes the concentration that gives 50% inhibition. In general, Ki refers to a measure of affinity in units of concentration, obtained from inhibition or displacement. High values mean weaker binding, low ones tighter binding.

As to `O=C1C=CC(=C(c2ccc(O)cc2)c2c(C#Cc3ccc(O)cc3)cccc2-c2ccc(O)cc2)C=C1` [Compound 1, selaginellin A], in assay [1], the inhibition at 100 µM was 92.5 ± 0.8% and the IC50 was 3.1 ± 0.1 µM. In addition, the “Inhibitory Rate at 100 μM (%) Tyrosinase” value in assay [2] is given as 36.2 ± 2.1%. Also, in assay [3], the sEH inhibition type result is on record as “Noncompetitive” and the Ki amounted to 2.9 µM.
Take `Cc1ccc(-c2ccc(O)cc2)c(C(=C2C=CC(=O)C=C2)c2ccc(O)cc2)c1C#Cc1ccc(O)cc1` [Compound 2, selaginellin B]: in assay [1], the inhibition at 100 µM turned out to be 89.3 ± 2.1% and the 50% inhibitory concentration (IC50) was determined as 8.2 ± 2.2 µM. For the same molecule, the “Inhibitory Rate at 100 μM (%) Tyrosinase” value in assay [2] is 32.5 ± 1.5%. Further, in assay [3], the sEH inhibition type entry is “Noncompetitive” and the affinity, expressed as Ki, was 6.8 µM.
For `O=C1C=CC(=C(c2ccc(O)cc2)c2c(-c3ccc(O)cc3)ccc(CO)c2C#Cc2ccc(O)cc2)C=C1` [Compound 3, selaginellin] the same measures were 94.5 ± 5%, 4.2 ± 0.2 µM, 40.1 ± 3.2%, “Noncompetitive” and 1.8 µM.

These data come from paper PMC6331899, “Soluble Epoxide Hydrolase Inhibitory Activity of Selaginellin Derivatives from Selaginella tamariscina” (Molecules, 2015).
